For this assay, the system named is P388 leukemia ip, CD2F1 mice, survival T/C. The assay is described as follows: NCI In Vivo Anticancer Drug Screen. Data for tumor model P388 Leukemia (intraperitoneal) in CD2F1 (CDF1) mice. To be noted: endpoint: median survival time, higher = longer survival. The procedure, abridged: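 Mice carrying the transplanted tumor received test compound or vehicle. Survival was recorded in each group, and the value is the treated-group measurement divided by that of the vehicle-treated control group.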

[1] abbreviates: dose: 50.0 mg/kg/injection, schedule: Q01DX009 (ip), vehicle: Klucel (hydroxypropylcellulose) (HPC).
[2] abbreviates: dose: 100.0 mg/kg/injection, schedule: Q01DX009 (ip), vehicle: Klucel (hydroxypropylcellulose) (HPC).
The mark [3] stands for this setting: dose: 50.0 mg/kg/injection, schedule: Q01DX005 (ip), vehicle: saline with Tween-80.
[4] abbreviates: dose: 100.0 mg/kg/injection, schedule: Q01DX005 (ip), vehicle: saline with Tween-80.
Setting [5] is: dose: 200.0 mg/kg/injection, schedule: Q01DX005 (ip), vehicle: saline with Tween-80.
Where [6] appears, read: dose: 50.0 mg/kg/injection, schedule: Q01DX005 (ip), vehicle: Klucel (hydroxypropylcellulose) (HPC).
Where [7] appears, read: dose: 25.0 mg/kg/injection, schedule: Q04DX002 (ip), vehicle: saline with Tween-80.
[8] abbreviates: dose: 60.0 mg/kg/injection, schedule: Q01DX005 (ip), vehicle: saline.
Where [9] appears, read: dose: 120.0 mg/kg/injection, schedule: Q01DX005 (ip), vehicle: saline.
The mark [10] stands for this setting: dose: 60.0 mg/kg/injection, schedule: Q01DX005 (ip), vehicle: saline with Tween-80.

Values joined by “and” are separate entries in the source; they are usually repeats but may differ in a detail not shown here. Equal values may be shown once. Toxic doses and inconclusive results are not listed.

For `O=C1C2C3C=CC(O3)C2C(=O)N1O` (configuration not stated), the T/C by setting is: (dose: 3.13 mg/kg/injection, schedule: Q01DX009 (ip), vehicle: water) 102 % of control; (dose: 6.25 mg/kg/injection, schedule: Q01DX009 (ip), vehicle: water) 112 % of control; (dose: 12.5 mg/kg/injection, schedule: Q01DX009 (ip), vehicle: water) 121 % of control; (dose: 25.0 mg/kg/injection, schedule: Q01DX009 (ip), vehicle: water) 118 % of control; (dose: 50.0 mg/kg/injection, schedule: Q01DX009 (ip), vehicle: water) 105 % of control.
For the compound `O=[N+]([O-])c1cc(F)cc([N+](=O)[O-])c1O`, the T/C by setting is: (dose: 12.5 mg/kg/injection, schedule: Q01DX009 (ip), vehicle: Klucel (hydroxypropylcellulose) (HPC)) 102 % of control; (dose: 25.0 mg/kg/injection, schedule: Q01DX009 (ip), vehicle: Klucel (hydroxypropylcellulose) (HPC)) 102 % of control; under setting [1], 112 % of control.
Turning to `O=C(O)CCCCCCCCC(=O)CCl`, the T/C reads like this: (dose: 25.0 mg/kg/injection, schedule: Q01DX009 (ip), vehicle: saline) 99 % of control; (dose: 50.0 mg/kg/injection, schedule: Q01DX009 (ip), vehicle: saline) 115 % of control.
Turning to `CCCS(=O)(=O)N/N=C(\C)c1cccs1`, the T/C runs as follows: under setting [1], 95 % of control; under setting [2], 87 % of control.
In the case of `CN1C=CC(C(O)(c2ccccc2)c2ccccc2)CC1` (configuration not stated), the T/C runs as follows: under setting [3], 99 % of control; under setting [4], 97 % of control; under setting [5], 100 % of control.
As to `C=C1C(=O)OC2/C=C(/COC(=O)CCCCC)CCC(OCC)C3=CC(OC3=O)C12` (configuration not stated), the T/C by setting is: (dose: 4.0 mg/kg/injection, schedule: Q01DX009 (ip), vehicle: Klucel (hydroxypropylcellulose) (HPC)) 105 % of control; (dose: 8.0 mg/kg/injection, schedule: Q01DX009 (ip), vehicle: Klucel (hydroxypropylcellulose) (HPC)) 105 % of control; (dose: 16.0 mg/kg/injection, schedule: Q01DX009 (ip), vehicle: Klucel (hydroxypropylcellulose) (HPC)) 108 % of control; (dose: 32.0 mg/kg/injection, schedule: Q01DX009 (ip), vehicle: Klucel (hydroxypropylcellulose) (HPC)) 123 % of control.
For the compound `Oc1cc(CN2CCCC2)c(O)cc1CN1CCCC1`, the T/C (dose: 25.0 mg/kg/injection, schedule: Q01DX009 (ip), vehicle: saline with Tween-80) was 103 % of control and 111 % of control; the T/C (dose: 50.0 mg/kg/injection, schedule: Q01DX009 (ip), vehicle: saline with Tween-80) is 103 % of control and 111 % of control; the T/C (dose: 100.0 mg/kg/injection, schedule: Q01DX009 (ip), vehicle: saline with Tween-80) was 110 % of control and 111 % of control.
As for `Clc1cnc(Oc2ccccc2)c2ccccc12`, the T/C is, setting by setting: under setting [3], 104 % of control; under setting [4], 103 % of control; under setting [5], 88 % of control.
Turning to `N#CC(C#N)=NNc1ccc2cn[nH]c2c1`, the T/C (dose: 12.5 mg/kg/injection, schedule: Q01DX005 (ip), vehicle: Klucel (hydroxypropylcellulose) (HPC)) is 101 % of control; the T/C (dose: 25.0 mg/kg/injection, schedule: Q01DX005 (ip), vehicle: Klucel (hydroxypropylcellulose) (HPC)) is 105 % of control and 107 % of control; the T/C under setting [6] is 116 % of control and 119 % of control and 120 % of control.
For `CCOC(=O)c1ccc(N=C(C2=C(O)c3ccccc3C2=O)c2ccccc2)cc1`, the T/C runs as follows: under setting [7], 92 % of control; (dose: 50.0 mg/kg/injection, schedule: Q04DX002 (ip), vehicle: saline with Tween-80) 101 % of control; (dose: 100.0 mg/kg/injection, schedule: Q04DX002 (ip), vehicle: saline with Tween-80) 95 % of control.
`OCC1OC(n2c(Cl)nc3ccccc32)C(O)C1O` (configuration not stated): the T/C was 100 % of control under setting [8]; 103 % of control under setting [9]; 98 % of control (dose: 240.0 mg/kg/injection, schedule: Q01DX005 (ip), vehicle: saline).
Consider `COc1cc(Br)c(C(C)(C)C#N)cc1OC`, for which the T/C by setting is: under setting [6], 101 % of control; (dose: 100.0 mg/kg/injection, schedule: Q01DX005 (ip), vehicle: Klucel (hydroxypropylcellulose) (HPC)) 101 % of control; (dose: 200.0 mg/kg/injection, schedule: Q01DX005 (ip), vehicle: Klucel (hydroxypropylcellulose) (HPC)) 100 % of control.
For `CCn1c2nc(=O)n(C)c(=O)c-2[n+]([O-])c2cc(Br)ccc21`, the T/C is 100 % of control (dose: 6.25 mg/kg/injection, schedule: Q04DX002 (ip), vehicle: saline with Tween-80); 96 % of control (dose: 12.5 mg/kg/injection, schedule: Q04DX002 (ip), vehicle: saline with Tween-80); 89 % of control and 92 % of control under setting [7].
Turning to `CCOc1ccccc1NC1=C(Cl)C(=O)c2ccccc2C1=O`, the T/C reads like this: (dose: 7.5 mg/kg/injection, schedule: Q01DX005 (ip), vehicle: saline with Tween-80) 100 % of control; (dose: 15.0 mg/kg/injection, schedule: Q01DX005 (ip), vehicle: saline with Tween-80) 94 % of control; (dose: 30.0 mg/kg/injection, schedule: Q01DX005 (ip), vehicle: saline with Tween-80) 97 % of control; under setting [10], 103 % of control.
`COc1ccc2c(c1)OCCCO/N=C(\c1ccccc1)c1ccc(OC)cc1OCCCO/N=C/2c1ccccc1` (tested in a mixture with another compound): the T/C runs as follows: under setting [3], 103 % of control; under setting [4], 103 % of control; under setting [5], 98 % of control.
With `CC(=O)c1cccc(OC(=O)Nc2ccccc2)c1`, the T/C runs as follows: under setting [3], 96 % of control; under setting [4], 90 % of control; under setting [5], 98 % of control.
Regarding `O=C(CC(c1ccncc1)C(C(=O)c1ccc(Cl)cc1)C(c1ccncc1)C(C(=O)c1ccc(Cl)cc1)C(O)c1ccncc1)c1ccc(Cl)cc1` (configuration not stated), the T/C under setting [3] is 101 % of control, the T/C under setting [4] was 93 % of control and the T/C under setting [5] is 93 % of control.
As for `CSC(=N\N=C\c1cccs1)/N=C/N(C)C`, the T/C reads like this: under setting [10], 92 % of control; (dose: 120.0 mg/kg/injection, schedule: Q01DX005 (ip), vehicle: saline with Tween-80) 99 % of control; (dose: 240.0 mg/kg/injection, schedule: Q01DX005 (ip), vehicle: saline with Tween-80) 97 % of control.
Turning to `O=C1NC(=O)C(C2CC2)(C2CC2)N1`, the T/C reads like this: under setting [3], 103 % of control; under setting [4], 101 % of control; under setting [5], 101 % of control.
`COc1cc2cc(c1Cl)N1CC(=O)C(C)(O)C(=O)N(C)C(C)C(=O)OC(CC1=O)C1(C)OC1C(C)C1CC(O)(NC(=O)O1)C(OC)/C=C\C=C(\C)C2OC` (configuration not stated): the T/C by setting is: (dose: 2.0 micrograms/kg/injection, schedule: Q01DX009 (ip), vehicle: distilled water + alcohol) 151 % of control; (dose: 4.0 micrograms/kg/injection, schedule: Q01DX009 (ip), vehicle: distilled water + alcohol) 153 % of control and 168 % of control; (dose: 16.0 micrograms/kg/injection, schedule: Q01DX009 (ip), vehicle: distilled water + alcohol) 210 % of control.
As for `CSc1nnc2n(N)cnn12`, the T/C by setting is: (dose: 100.0 mg/kg/injection, schedule: Q04DX002 (ip), vehicle: water) 107 % of control; (dose: 200.0 mg/kg/injection, schedule: Q04DX002 (ip), vehicle: water) 106 % of control; (dose: 400.0 mg/kg/injection, schedule: Q04DX002 (ip), vehicle: water) 106 % of control.
For the compound `FC(F)(F)SN1COCN(SC(F)(F)F)C1`, the T/C reads like this: (dose: 30.0 mg/kg/injection, schedule: Q01DX005 (ip), vehicle: saline) 96 % of control; under setting [8], 100 % of control; under setting [9], 99 % of control and 102 % of control.
With `O=C1c2ccccc2C(=O)c2c(OCCOCCO)cccc21`, the T/C under setting [3] was 118 % of control, the T/C under setting [4] is 112 % of control and the T/C under setting [5] was 96 % of control.
Regarding `CC(C)N(c1ccnc(F)n1)C(C)C`, the T/C was 102 % of control (dose: 30.0 mg/kg/injection, schedule: Q01DX005 (ip), vehicle: Klucel (hydroxypropylcellulose) (HPC)) and 104 % of control (dose: 60.0 mg/kg/injection, schedule: Q01DX005 (ip), vehicle: Klucel (hydroxypropylcellulose) (HPC)).
As to `Clc1ccc(N=NN2CCc3ccccc3C2)cc1`, the T/C is 99 % of control under setting [1]; 99 % of control under setting [2]; 93 % of control (dose: 200.0 mg/kg/injection, schedule: Q01DX009 (ip), vehicle: Klucel (hydroxypropylcellulose) (HPC)).
With `CC1(Oc2ccccc2)OC(=O)c2ccccc2O1` (configuration not stated), the T/C under setting [3] was 96 % of control, the T/C under setting [4] was 104 % of control and the T/C under setting [5] was 95 % of control.
As for `N#CCCN/N=C\c1ccc2c(c1)OCO2`, the T/C is 102 % of control (dose: 100.0 mg/kg/injection, schedule: Q04DX003 (ip), vehicle: saline with Tween-80); 96 % of control (dose: 200.0 mg/kg/injection, schedule: Q04DX003 (ip), vehicle: saline with Tween-80); 92 % of control (dose: 400.0 mg/kg/injection, schedule: Q04DX003 (ip), vehicle: saline with Tween-80).

These data come from PubChem BioAssay AID330 (DTP/NCI, 2004).
